Results from the supplement of paper PMC10307832.

How the values were obtained:
Assay in all cases: relative viability (nuclei count vs DMSO), 5 days (fraction); higher = more cells survive
[1] = compound: CN1CCN(CC1)C2=CC(=C(C=C2)NC3=NC=C4C(=N3)N(C5=CC=CC=C5C(=O)N4C)C)OC [XMD8-85] + Nc1ncn([C@H]2C[C@H](O)[C@@H](CO)O2)c(=O)n1 [Decitabine] (partner 2 µM)
Outline: (§1)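 Each reported value is a median over duplicate plates. It expresses relative viability: treated-well nuclei count divided by vehicle-well nuclei count. Lung cancer cell lines in 1536-well plates were dosed by pin tool a day after seeding, alone with one drug or with a fixed anchor-drug dose plus five library-drug doses (not always all listed) in √10 steps, and nuclei were counted after 5 days.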

[2] = compound: O=C(O)C(Cc1ccccc1[N+](=O)[O-])=NNc1nc(-c2ccc(Cl)c(Cl)c2)cs1 (mixture of isomers) [4EGI-1] + Cc1cc(Nc2cc(N3CCN(C)CC3)nc(Sc3ccc(NC(=O)C4CC4)cc3)n2)n[nH]1 [Tozasertib] (partner 0.1 µM)
Outline: as §1

[3] = compound: CN1CCN(CC1)C2=CC(=C(C=C2)NC3=NC=C4C(=N3)N(C5=CC=CC=C5C(=O)N4C)C)OC [XMD8-85] + C[C@@H](Oc1cc(-c2cnn(C3CCNCC3)c2)cnc1N)c1c(Cl)ccc(F)c1Cl [Crizotinib] (partner 1 µM)
Outline: as §1

[4] = compound: O=C(O)C(Cc1ccccc1[N+](=O)[O-])=NNc1nc(-c2ccc(Cl)c(Cl)c2)cs1 (mixture of isomers) [4EGI-1] + O=C(CCCCCCC(=O)Nc1ccccc1)NO [Vorinostat] (partner 1 µM)
Outline: as §1

Cell Line | relative viability ([1]; first compound 0.08 µM) | relative viability ([1]; first compound 0.253 µM) | relative viability ([1]; first compound 2.53 µM) | relative viability ([1]; first compound 8 µM) | relative viability ([2]; first compound 0.5 µM) | relative viability ([2]; first compound 1.581 µM) | relative viability ([2]; first compound 5 µM) | relative viability ([2]; first compound 15.81 µM) | relative viability ([2]; first compound 50 µM) | relative viability ([3]; first compound 0.08 µM) | relative viability ([3]; first compound 0.253 µM) | relative viability ([3]; first compound 0.8 µM) | relative viability ([3]; first compound 2.53 µM) | relative viability ([3]; first compound 8 µM) | relative viability ([4]; first compound 0.5 µM) | relative viability ([4]; first compound 1.581 µM) | relative viability ([4]; first compound 5 µM) | relative viability ([4]; first compound 15.81 µM) | relative viability ([4]; first compound 50 µM) | relative viability ([1]; first compound 0.8 µM)
NCI-H596 | 0.941 | 1.01 | 2 | 0.873 | 1.01 | 0.769 | 0.987 | 0.949 | 0.783 | 0.991 | 0.906 | 0.875 | 0.789 | 0.781 | 0.648 | 0.495 | 0.6 | 0.475 | 0.375 | –
NCI-H661 | 0.589 | 0.552 | 0.62 | 0.553 | 0.336 | 0.34 | 0.34 | 0.355 | 0.283 | 1.03 | 1.16 | 0.905 | 1.1 | 0.854 | 0.856 | 0.702 | 0.789 | 0.681 | 0.353 | 0.629
PC-3 [JPC-3] | 0.93 | – | 1.06 | 0.745 | 0.881 | 0.863 | 0.825 | – | 0.711 | 0.827 | 1.12 | 1.01 | 1.09 | 0.986 | 0.753 | – | 0.867 | 0.418 | 0.307 | 0.8
RERF-LC-KJ | – | 0.703 | 0.767 | 0.496 | 0.547 | – | 0.425 | 0.363 | 0.216 | 0.881 | 0.751 | 0.807 | 0.817 | 0.658 | 0.796 | 0.434 | 0.739 | 0.58 | 0.428 | 0.811
NCI-H2170 | 0.478 | 0.478 | 0.497 | 0.484 | 0.829 | 0.728 | 0.628 | 0.617 | 0.314 | 1.18 | 1.01 | 1.27 | 1.28 | 0.966 | 0.936 | 0.749 | 0.842 | 0.699 | 0.585 | 0.498
NCI-H1993 | 0.543 | 0.555 | 0.561 | 0.57 | 0.552 | 0.627 | 0.563 | 0.511 | 0.492 | 0.783 | 0.77 | 0.869 | 0.944 | 0.64 | 1.04 | 0.678 | 0.778 | 0.524 | 0.349 | 0.585
A-427 | 0.601 | 0.596 | 0.573 | 0.539 | 0.192 | 0.195 | 0.189 | 0.205 | 0.0979 | 0.897 | 0.934 | 0.922 | 1.05 | 0.56 | 0.865 | – | 0.882 | 0.646 | 0.2 | 0.546
NCI-H1650 | 0.539 | 0.414 | 0.374 | 0.371 | 0.474 | – | 0.413 | 0.327 | 0.267 | 1.01 | 0.773 | 1.12 | 0.715 | 0.256 | 0.637 | – | 0.649 | 0.356 | 0.157 | 0.487
ABC-1 | 1.42 | 1.09 | 1.11 | 0.745 | 0.201 | 0.15 | 0.21 | 0.206 | 0.172 | 1.3 | 0.882 | 1.41 | 0.994 | 0.49 | 1.16 | – | 1.35 | 0.439 | 0.284 | 1.49
